According to patent US20250320202A1, “PRMT5 INHIBITOR, PREPARATION METHOD THEREFOR, AND PHARMACEUTICAL USE THEREOF” (Abbisko Therapeutics Co., Ltd., priority 2022, published 2025):

Key:
[1] = system: HCT116 MTAP wild-type cells; experiment: Human colon cancer HCT116 cell proliferation inhibition test (CellTiter-Glo, 6 days), MTAP wild-type cells; assay type: cell-based; details: HCT-116, 144 h
Method: (§1) 1. HCT116 MTAP knockout and MTAP wild-type cells were plated in 96-well flat bottom plates, and cultured overnight with McCoy's 5A medium containing 10% fetal bovine serum+1% penicillin-streptomycin at 37° C. and 5% CO2.
(§2) 2. On the next day, the compound was dissolved with DMSO, diluted with DMSO and medium successively and transferred to the cell plate. The final concentration of the compound was 10 μM, the compound was diluted 4 times, with 9 concentration gradients, and DMSO control was added.
(§3) 3. Cells that have not been treated with the compound were removed. CellTiter-Glo Luminescent Cell Viability Assay (Promega) was used to detect cell viability, the operation was performed with reference to the package insert of the kit, and then the cell plate was placed on EnVision Multilabel Reader to detect the cold light signal.
(§4) 4. Meanwhile, the cell plate treated with the compound was cultured at 37° C. and 5% CO2 for 6 consecutive days.
(§5) 5. Then, CellTiter-Glo was also used to detect cell viability.
(§6) 6. Finally, the four-parameter dose-response curve module of GraphPad Prism v 9.2.0 software was used to plot the dose-response curve and calculate the IC50 for proliferation inhibition (unit: nM).

[2] = system: HCT116 MTAP knockout cells; experiment: Human colon cancer HCT116 cell proliferation inhibition test (CellTiter-Glo, 6 days), MTAP knockout cells; assay type: cell-based; details: HCT-116, 144 h
Method: as §1, §2, §3, §4, §5, §6

[3] = Pharmacokinetic assay in mice, blood-brain barrier penetration analysis (Kp); assay type: in vivo; details: male, mouse, ICR mice, PO single dose 10 mg/kg, brain vs plasma, read-out: Kp (4 h after administration)
Method: The purpose of this trial is to study the pharmacokinetic behavior of some compounds of the present invention, and the administration method is: ICR mice were orally administered (PO) a single dose, at a dose of 10 mg/kg.
ICR mice male N=3 original source: Shanghai Sippr-Bk Lab Animal Co., Ltd.
The compounds were weighed and dissolved in 20% PG+10% Solutol HS15+70% pH 3 citrate buffer, respectively, shaken well and sonicated to prepare colorless clear solutions. 9 mice were administered orally after an overnight fast. The dose was 10 mg/kg.
• 1) About 90 μL blood was collected via the submandibular vein per time point, heparin sodium anticoagulant was added, the sample was placed on ice after collection, and plasma was centrifuged within 1 hour (centrifugation conditions: 8,000 rpm, 6 minutes, 2-8° C.). • 2) The blood collection time points were 1, 4, and 24 h. The samples were stored in a refrigerator at −20° C. • 3) The plasma sample was 40 μL, 160 μL of ice-cold acetonitrile containing internal standard was added, vortexed for 3 minutes, and centrifuged at 11,000 rpm for 5 minutes. • 4) 100 μL of the supernatant was taken and added to 100 μL of water, 5 μL of the sample was taken and injected into LC/MS/MS for analysis.
AUC or concentration in brain or plasma measured by using the above method was used to calculate the Kp. Kp refers to the relationship between drug concentrations in brain and blood and is used to evaluate the ability of a drug to penetrate the blood-brain barrier. Post-dose Kp was calculated by the following formula: […]

Row | SMILES | IC50 [1] [nM] | IC50 [2] [nM] | Kp at 4 h [3]
1 | Nc1nc2ccc(C(=O)N(CC3CC3)[C@@H]3COc4cc(C(F)(F)F)ccc43)cc2c2cnccc12 [Example 192, (S)-5-amino-N-(cyclopropylmethyl)-N-(6-(trifluoromethyl)-2,3-dihydrobenzofuran-3-yl)benzo[c][2,6]naphthyridin-9-carboxamide] | 79 | 3.6 | 0.4
2 | Nc1nc2cc(Cl)c(C(=O)N(CC3CC3)[C@@H]3CCc4nc(C(F)(F)F)ccc43)cc2c2cnccc12 [Example 238, (R)-5-amino-8-chloro-N-(cyclopropylmethyl)-N-(2-(trifluoromethyl)-6,7-dihydro-5H-cyclopenta[b]pyridin-5-yl)benzo[c][2,6]naphthyridin-9-carboxamide] | 264 | 14 | 
3 | Nc1nc2ccc(C(=O)N(CC3CC3)C3CCc4cc(C(F)(F)F)ccc43)cc2c2cnccc12 (stereo not shown) [Example 108, 5-amino-N-(cyclopropylmethyl)-N-(5-(trifluoromethyl)-2,3-dihydro-1H-inden-1-yl)benzo[c][2,6]naphthyridin-9-carboxamide] | 1420 | 36 | 
4 | Cc1cc2nc(N)c3ccncc3c2cc1C(=O)N(CC1CC1)[C@@H]1CCc2nc(C(F)(F)F)ccc21 [Example 236, (R)-5-amino-N-(cyclopropylmethyl)-8-methyl-N-(2-(trifluoromethyl)-6,7-dihydro-5H-cyclopenta[b]pyridin-5-yl)benzo[c][2,6]naphthyridin-9-carboxamide] | 227 | 9 | 
5 | Cc1cc2nc(N)c3ccncc3c2cc1C(=O)N(CC1CC1)[C@@H]1COc2nc(C(F)(F)F)ccc21 [Example 230, (S)-5-amino-N-(cyclopropylmethyl)-8-methyl-N-(6-(trifluoromethyl)-2,3-dihydrofuro[2,3-b]pyridin-3-yl)benzo[c][2,6]naphthyridin-9-carboxamide] | 145 | 13 | 
6 | Cn1ncc2c(N)nc3cc(O)c(C(=O)N(c4nccs4)[C@@H]4CCc5cc(C(F)(F)F)ccc54)cc3c21 [Example 184, (R)-4-amino-7-hydroxy-1-methyl-N-(thiazol-2-yl)-N-(5-(trifluoromethyl)-2,3-dihydro-1H-inden-1-yl)-1H-pyrazolo[4,3-c]quinolin-8-carboxamide] | > 10000 | > 10000 | 
7 | Nc1nc2ccc(C(=O)N(CC3CC3)[C@@H]3COc4nc(C(F)(F)F)ccc43)cc2c2cnccc12 [Example 195, (S)-5-amino-N-(cyclopropylmethyl)-N-(6-(trifluoromethyl)-2,3-dihydrofuro[2,3-b]pyridin-3-yl)benzo[c][2,6]naphthyridin-9-carboxamide] | 423 | 8.6 | 
8 | Nc1nc2ccc(C(=O)N(CC3CC3)[C@@H]3CCc4cc(C(F)(F)F)ccc43)cc2c2cnccc12 [Example 219, (R)-5-amino-N-(cyclopropylmethyl)-N-(5-(trifluoromethyl)-2,3-dihydro-1H-inden-1-yl)benzo[c][2,6]naphthyridin-9-carboxamide] | 1560 | 35 | 0.5

Other lines, results leading:

Row | IC50 [1] [nM] | IC50 [2] [nM] | Kp at 4 h [3] | SMILES
9 | 224 | 20 | 0.7 | Nc1nc2cc(F)c(C(=O)N(CC3CC3)[C@@H]3COc4cc(C(F)(F)F)ccc43)cc2c2cnccc12 [Example 234, (S)-5-amino-N-(cyclopropylmethyl)-8-fluoro-N-(6-(trifluoromethyl)-2,3-dihydrobenzofuran-3-yl)benzo[c][2,6]naphthyridin-9-carboxamide]
10 | 176 | 21 | 0.7 | Nc1nc2cc(Cl)c(C(=O)N(CC3CC3)[C@@H]3COc4cc(C(F)(F)F)ccc43)cc2c2cnccc12 [Example 235, (S)-5-amino-8-chloro-N-(cyclopropylmethyl)-N-(6-(trifluoromethyl)-2,3-dihydrobenzofuran-3-yl)benzo[c][2,6]naphthyridin-9-carboxamide]
11 | 702 | 25 | 0.1 | CN(C(=O)c1ccc2nc(N)c3ccncc3c2c1)[C@@H]1COc2cc(C(F)(F)F)ccc21 [Reference Compound 2, reference compound]
12 | 102 | 33 | 0.4 | Cc1cc2nc(N)c3ccncc3c2cc1C(=O)N(CC1CC1)[C@@H]1COc2cc(C(F)(F)F)ccc21 [Example 233, (S)-5-amino-N-(cyclopropylmethyl)-8-methyl-N-(6-(trifluoromethyl)-2,3-dihydrobenzofuran-3-yl)benzo[c][2,6]naphthyridin-9-carboxamide]
13 | 264 | 0.9 |  | Cn1ccc(N(C(=O)c2cc3c(cc2F)nc(N)c2cnn(C)c23)[C@@H]2CCc3cc(C(F)(F)F)ccc32)n1 [Example 197, (R)-4-amino-7-fluoro-1-methyl-N-(1-methyl-1H-pyrazol-3-yl)-N-(5-(trifluoromethyl)-2,3-dihydro-1H-inden-1-yl)-1H-pyrazolo[4,3-c]quinolin-8-carboxamide]
14 | 78 | 2 |  | Cn1cc(N(C(=O)c2cc3c4c(c(N)nc3cc2F)COC4)[C@@H]2COc3cc(C(F)(F)F)ccc32)cn1 [Example 201, (S)-4-amino-7-fluoro-N-(1-methyl-1H-pyrazol-4-yl)-N-(6-(trifluoromethyl)-2,3-dihydrobenzofuran-3-yl)-1,3-dihydrofuro[3,4-c]quinolin-8-carboxamide]
15 | 79 | 0.8 |  | Cn1cc(N(C(=O)c2cc3c(cc2F)nc(N)c2cnn(C)c23)C2COc3cc(C(F)(F)F)ccc32)cn1 (stereo not shown) [Example 21, 4-amino-7-fluoro-1-methyl-N-(1-methyl-1H-pyrazol-4-yl)-N-(6-(trifluoromethyl)-2,3-dihydrobenzofuran-3-yl)-1H-pyrazolo[4,3-c]quinolin-8-carboxamide]
16 | 61 | 3 |  | Cn1cc(N(C(=O)c2cc3c(cc2F)nc(N)c2cnn(C)c23)[C@@H]2CCc3cc(C(F)(F)F)ccc32)cn1 [Example 229, (R)-4-amino-7-fluoro-1-methyl-N-(1-methyl-1H-pyrazol-4-yl)-N-(5-(trifluoromethyl)-2,3-dihydro-1H-inden-1-yl)-1H-pyrazolo[4,3-c]quinolin-8-carboxamide]
17 | 64 | 0.8 |  | Cn1cc(N(C(=O)c2cc3c(cc2F)nc(N)c2cnn(C)c23)[C@@H]2COc3cc(C(F)(F)F)ccc32)cn1 [Example 205, (S)-4-amino-7-fluoro-1-methyl-N-(1-methyl-1H-pyrazol-4-yl)-N-(6-(trifluoromethyl)-2,3-dihydrobenzofuran-3-yl)-1H-pyrazolo[4,3-c]quinolin-8-carboxamide]
